# Molecular target: human-KAT6A (MYST domain 507-778 aa) (Homo sapiens (Human), UniProt Q92794)
# Experiment: KAT6A biochemical assay (TR-FRET)
# Settings: @ 1 μM; reported where IC50 could not be determined; read-out: Percent inhibition at specific concentration (KAT6A)
# Summary of the method: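 KAT6A MYST domain preincubated with compound 30 min at 25° C, then reacted 60 min at 25° C with 200 nM biotin-H4 peptide and 600 nM acetyl-CoA (final). Europium anti-acetyl-lysine/streptavidin-APC TR-FRET read (Ex 340, Em 615/665 nm); % inhibition from 665/615 ratio, IC50 by sigmoidal fit.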
# Chain of human-KAT6A (MYST domain 507-778 aa) (Q92794 507-778): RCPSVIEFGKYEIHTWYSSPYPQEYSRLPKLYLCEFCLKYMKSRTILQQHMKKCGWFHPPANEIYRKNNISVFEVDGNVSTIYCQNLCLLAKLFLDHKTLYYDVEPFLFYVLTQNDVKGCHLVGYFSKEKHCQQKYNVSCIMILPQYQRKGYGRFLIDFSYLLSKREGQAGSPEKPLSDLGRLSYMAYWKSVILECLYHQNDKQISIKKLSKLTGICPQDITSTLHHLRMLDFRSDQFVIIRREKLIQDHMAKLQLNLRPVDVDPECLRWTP
row,inhibition at 1 µM,SMILES
1,25%,"COc1ccc(C(C)(C)C)cc1S(=O)(=O)NC(=O)c1ccc(Cn2cccn2)c(=O)n1C [Compound 278, 5-((1H-pyrazol-1-yl)methyl)-N-((5-(tert-butyl)-2-methoxyphenyl)sulfonyl)-1-methyl-6-oxo-1,6-dihydropyridine-2-carboxamide]"
2,47%,"CN=S(=O)(NC(=O)c1ccc(Cn2cccn2)c(OC)c1)c1c(OC)cccc1OC (centres unmarked) [Compound 292, 4-((1H-pyrazol-1-yl)methyl)-N-((2,6-dimethoxyphenyl)(methylamino)(oxo)-16-sulfaneylidene)-3-methoxybenzamide]"

# Same assay, conditions: TR-FRET; histone H4 peptide 200 nM, acetyl-CoA 600 nM; read-out: KAT6A IC50
row,SMILES,IC50
1,"COc1ccc(C2CC2)cc1S(=O)(=O)NC(=O)c1ncc(Cn2cccn2)c(OC)n1 [Compound 273, 5-((1H-pyrazol-1-yl)methyl)-N-((5-cyclopropyl-2-methoxyphenyl)sulfonyl)-4-methoxypyrimidine-2-carboxamide]",34 nM
2,"COc1cccc(OC)c1S(=O)(=O)NC(=O)c1ncc(Cn2cccn2)c(OC)n1 [Compound 274, 5-((1H-pyrazol-1-yl)methyl)-N-((2,6-dimethoxyphenyl)sulfonyl)-4-methoxypyrimidine-2-carboxamide]",30 nM
3,"CCOc1nc(C(=O)NS(=O)(=O)c2c(OC)cccc2OC)ccc1Cn1cccn1 [Compound 289, 5-((1H-pyrazol-1-yl)methyl)-N-((2,6-dimethoxyphenyl)sulfonyl)-6-ethoxypicolinamide]",19 nM
4,"COc1ccc(C(C)(C)CO)cc1[S@@](=N)(=O)NC(=O)c1ccc(Cn2cccn2)c(OC)n1 [Compound 290b, (S)-5-((1H-pyrazol-1-yl)methyl)-N-(5-(1-hydroxy-2-methylpropan-2-yl)-2-methoxyphenylsulfonimidoyl)-6-methoxypicolinamide]",33 nM
5,"COc1cc(C(=O)N[S@@](=N)(=O)c2cc(C(C)(C)CO)ccc2OC)ccc1Cn1cccn1 [Compound 291a, (R)-4-((1H-pyrazol-1-yl)methyl)-N-(5-(1-hydroxy-2-methylpropan-2-yl)-2-methoxyphenylsulfonimidoyl)-3-methoxybenzamide]",93 nM
6,"COc1ccc(Cl)c(OC)c1[S@](=N)(=O)NC(=O)c1ccc(Cn2cccn2)c(OC)n1 [Compound 293a, (R)-5-((1H-pyrazol-1-yl)methyl)-N-(3-chloro-2,6-dimethoxyphenylsulfonimidoyl)-6-methoxypicolinamide]",374 nM
7,"COc1ccc(Cl)c(OC)c1[S@@](=N)(=O)NC(=O)c1ccc(Cn2cccn2)c(OC)n1 [Compound 293b, (S)-5-((1H-pyrazol-1-yl)methyl)-N-(3-chloro-2,6-dimethoxyphenylsulfonimidoyl)-6-methoxypicolinamide]",16 nM
8,"CCOc1cccc(OC)c1[S@](=N)(=O)NC(=O)c1ccc(Cn2cccn2)c(OC)n1 [Compound 294a, (R)-5-((1H-pyrazol-1-yl)methyl)-N-(2-ethoxy-6-methoxyphenylsulfonimidoyl)-6-methoxypicolinamide]",271 nM
9,"CCOc1cccc(OC)c1[S@@](=N)(=O)NC(=O)c1ccc(Cn2cccn2)c(OC)n1 [Compound 294b, (S)-5-((1H-pyrazol-1-yl)methyl)-N-(2-ethoxy-6-methoxyphenylsulfonimidoyl)-6-methoxypicolinamide]",22 nM
10,"COc1cc(C(=O)N[S@@](=N)(=O)c2c(OC)cccc2OC)ccc1Cn1cccn1 [Compound 295a, (R)-4-((1H-pyrazol-1-yl)methyl)-N-(2,6-dimethoxyphenylsulfonimidoyl)-3-methoxybenzamide]",16 nM
11,"COc1cc(C(=O)N[S@](=N)(=O)c2c(OC)cccc2OC)ccc1Cn1cccn1 [Compound 295b, (S)-4-((1H-pyrazol-1-yl)methyl)-N-(2,6-dimethoxyphenylsulfonimidoyl)-3-methoxybenzamide]",271 nM

# Next, values leading:
row,IC50,SMILES
1,14 nM,"COc1cccc(OC2CC2)c1S(=O)(=O)NC(=O)c1ccc(Cn2cccn2)c(OC)n1 [Compound 279, 5-((1H-pyrazol-1-yl)methyl)-N-((2-cyclopropoxy-6-methoxyphenyl)sulfonyl)-6-methoxypicolinamide]"
2,14 nM,"COc1cc(F)cc(OC)c1S(=O)(=O)NC(=O)c1ccc(Cn2cccn2)c(OC)n1 [Compound 282, 5-((1H-pyrazol-1-yl)methyl)-N-((4-fluoro-2,6-dimethoxyphenyl)sulfonyl)-6-methoxypicolinamide]"
3,14 nM,"COc1ccc(C(C)(C)CO)cc1[S@](=N)(=O)NC(=O)c1ccc(Cn2cccn2)c(OC)n1 [Compound 290a, (R)-5-((1H-pyrazol-1-yl)methyl)-N-(5-(1-hydroxy-2-methylpropan-2-yl)-2-methoxyphenylsulfonimidoyl)-6-methoxypicolinamide]"
4,11 nM,"COc1cc(C)c(S(=O)(=O)NC(=O)c2ccc(Cn3cccn3)c(OC)n2)c(OC)c1 [Compound 286, 5-((1H-pyrazol-1-yl)methyl)-N-((2,4-dimethoxy-6-methylphenyl)sulfonyl)-6-methoxypicolinamide]"
5,11 nM,"COc1nc(C(=O)NS(=O)(=O)c2cc(C(F)(F)F)cc3c2OCC3)ccc1Cn1cccn1 [Compound 287, 5-((1H-pyrazol-1-yl)methyl)-6-methoxy-N-((5-(trifluoromethyl)-2,3-dihydrobenzofuran-7-yl)sulfonyl)picolinamide]"
6,10 nM,"COc1cc(C)cc(OC)c1S(=O)(=O)NC(=O)c1ccc(Cn2cccn2)c(OC)n1 [Compound 275, 5-((1H-pyrazol-1-yl)methyl)-N-((2,6-dimethoxy-4-methylphenyl)sulfonyl)-6-methoxypicolinamide]"
7,10 nM,"COc1ccc2c(c1S(=O)(=O)NC(=O)c1ccc(Cn3cccn3)c(OC)n1)OCO2 [Compound 281, 5-((1H-pyrazol-1-yl)methyl)-6-methoxy-N-((5-methoxybenzo[d][1,3]dioxol-4-yl)sulfonyl)picolinamide]"
8,10 nM,"COc1cc(Cl)cc(OC)c1S(=O)(=O)NC(=O)c1ccc(Cn2cccn2)c(OC)n1 [Compound 283, 5-((1H-pyrazol-1-yl)methyl)-N-((4-chloro-2,6-dimethoxyphenyl)sulfonyl)-6-methoxypicolinamide]"
9,10 nM,"CCOc1ccc(CC)c(OC)c1S(=O)(=O)NC(=O)c1ccc(Cn2cccn2)c(OC)n1 [Compound 284, 5-((1H-pyrazol-1-yl)methyl)-N-((6-ethoxy-3-ethyl-2-methoxyphenyl)sulfonyl)-6-methoxypicolinamide]"
10,9 nM,"COc1cc(C(=O)N[S@](=N)(=O)c2cc(C(C)(C)CO)ccc2OC)ccc1Cn1cccn1 [Compound 291b, (S)-4-((1H-pyrazol-1-yl)methyl)-N-(5-(1-hydroxy-2-methylpropan-2-yl)-2-methoxyphenylsulfonimidoyl)-3-methoxybenzamide]"
11,8 nM,"COc1cc(F)c(S(=O)(=O)NC(=O)c2ccc(Cn3cccn3)c(OC)n2)c(OC)c1 [Compound 288, 5-((1H-pyrazol-1-yl)methyl)-N-((2-fluoro-4,6-dimethoxyphenyl)sulfonyl)-6-methoxypicolinamide]"
12,6 nM,"COc1cc(Br)cc(OC)c1S(=O)(=O)NC(=O)c1ccc(Cn2cccn2)c(OC)n1 [Compound 285, 5-((1H-pyrazol-1-yl)methyl)-N-((4-bromo-2,6-dimethoxyphenyl)sulfonyl)-6-methoxypicolinamide]"
13,5 nM,"COc1nc(C(=O)NS(=O)(=O)c2cc(C(C)(C)C)cc3c2OCC3)ccc1Cn1cccn1 [Compound 280, 5-((1H-pyrazol-1-yl)methyl)-N-((5-(tert-butyl)-2,3-dihydrobenzofuran-7-yl)sulfonyl)-6-methoxypicolinamide]"

# — patent publication US20250136553A1, “ACYLSULFONAMIDE KAT6A INHIBITORS” (Olema Pharmaceuticals, Inc., priority 2023, published 2025)
